Target: T1, CCT4 (Homo sapiens, UniProt P50991)
T1 sequence (P50991 2-539): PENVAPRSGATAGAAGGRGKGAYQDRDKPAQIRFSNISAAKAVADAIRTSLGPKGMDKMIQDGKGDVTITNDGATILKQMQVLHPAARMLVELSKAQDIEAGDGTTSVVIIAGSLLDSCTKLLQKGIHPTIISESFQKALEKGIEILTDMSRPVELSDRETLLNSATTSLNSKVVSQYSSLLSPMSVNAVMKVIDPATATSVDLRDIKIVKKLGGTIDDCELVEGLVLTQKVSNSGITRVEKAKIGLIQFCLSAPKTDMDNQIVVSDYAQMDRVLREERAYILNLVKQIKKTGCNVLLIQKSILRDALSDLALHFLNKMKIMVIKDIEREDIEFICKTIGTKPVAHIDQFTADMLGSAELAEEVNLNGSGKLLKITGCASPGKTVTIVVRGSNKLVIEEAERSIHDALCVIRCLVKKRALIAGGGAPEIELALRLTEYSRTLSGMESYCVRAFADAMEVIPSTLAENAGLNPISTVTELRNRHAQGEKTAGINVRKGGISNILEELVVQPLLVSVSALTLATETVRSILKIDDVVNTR
Assay: SPR on immobilized recombinant CCT4
Format: binding

- Kd: ~2.2 µM
Substance: anticarin-β
